Results reported in publication PMC12748375, “Insights into cannabinoid receptor 2 (CB2) anterograde trafficking and pharmacological chaperoning” (Cellular and Molecular Life Sciences: CMLS, 2025).

Experiments:
hCB2 wt [1] = target: T1, hCB2 wt (Homo sapiens, UniProt P34972); test: receptor internalisation, surface HA immunocytochemistry (Method A); type: cell-based; settings: read-out: Method A: Internalisation (3 h) / CB2 wt / pEC50 (± SEM) (converted)
T1 construct: gene CNR2; full-length (63Q), N-terminal HA tag and three thrombin cleavage sites (HA-3TCS), pcDNA5/FRT, expressed in HEK Flp-in-293 cells
T1 sequence (P34972 whole entry): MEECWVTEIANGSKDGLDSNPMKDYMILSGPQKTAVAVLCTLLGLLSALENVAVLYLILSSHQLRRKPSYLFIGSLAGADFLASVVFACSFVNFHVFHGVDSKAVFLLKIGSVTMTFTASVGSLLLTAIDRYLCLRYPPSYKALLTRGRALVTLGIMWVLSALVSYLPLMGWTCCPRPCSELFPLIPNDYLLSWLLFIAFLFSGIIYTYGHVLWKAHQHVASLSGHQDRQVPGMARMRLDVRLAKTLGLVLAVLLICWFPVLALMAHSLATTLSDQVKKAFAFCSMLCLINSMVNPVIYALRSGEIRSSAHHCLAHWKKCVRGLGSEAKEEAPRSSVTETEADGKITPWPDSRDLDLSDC
Source text: receptor internalisation, surface HA immunocytochemistry (Method A) on hCB2 wt

hCB2 wt [2] = target: T2, hCB2 wt (Homo sapiens, UniProt P34972, K318E/K319E); test: net surface expression, immunocytochemistry (Method B); type: cell-based; settings: read-out: Method B: Net Surface Expression (3 h) / KK mutant / pEC50 (± SEM) (converted)
T2 construct: gene CNR2; full-length (63Q), N-terminal HA tag and three thrombin cleavage sites (HA-3TCS), pcDNA5/FRT, expressed in HEK Flp-in-293 cells
T2 sequence (P34972 whole entry K318E/K319E): as the sequence (P34972 whole entry) above, with K318E, K319E counted along it

Structure (SMILES): CCCCC/C=C\C/C=C\C/C=C\C/C=C\CCCC(=O)OC(CO)CO [2-AG]
- EC50 (hCB2 wt [1]): 741 nM

Structure (SMILES): COc1ccc(C(=O)c2c(C)n(CCN3CCOCC3)c3cc(I)ccc23)cc1 [AM630]
- EC50 (hCB2 wt [2]): 513 nM
